The values below come from DBAASP.

Converted amounts (≈) assume the structure as drawn.

Holding throughout (assay): ≥ marks a high value that may be exact or a test limit, other limits are often not marked, values filed in µg/mL are converted to µM
The subject of assay [1] is Staphylococcus aureus ATCC 6538.
The test system of assay [2] is Klebsiella pneumoniae ATCC 10031.
The test system of assay [3] is Pseudomonas aeruginosa ATCC 13388.
Assay [4] concerns Salmonella enterica subsp. enterica serovar Typhimurium ATCC 14028.
Assay [5] has as its system Escherichia coli ATCC 11219.
Assay [6] has as its system Bacillus subtilis ATCC 6051.
The subject of assay [7] is Escherichia coli NEB5alpha.
The test system of assay [8] is Enterococcus faecium CGMCC 1.2334.
Assay [9] has as its system Enterococcus faecalis CGMCC 1.595.
The test system of assay [10] is Escherichia coli AS1.349.
Assay [11] concerns Staphylococcus epidermidis CICC 23664.
For assay [12], the system named is Pseudomonas aeruginosa CGMCC 1.860.
Assay [13] relates to Proteus mirabilis CICC 22931.
Assay [14] has as its system Enterobacter cloacae CGMCC 1.58.
The subject of assay [15] is Staphylococcus aureus AS1.72.
For assay [16], the system named is Bacillus cereus AS1.126.
In assay [17] the test system is Klebsiella pneumoniae subsp. pneumoniae CGMCC 1.176.
Assay [18] relates to Staphylococcus aureus ATCC 25923.
Assay [19] concerns Staphylococcus aureus ATCC 33591.
Assay [20] concerns Staphylococcus epidermidis ATCC 35984.
Assay [21] concerns Pseudomonas aeruginosa ATCC 27853.
For assay [22], the system named is Stenotrophomonas maltophilia ATCC 13637.
For assay [23], the system named is Escherichia coli ATCC 25922.
Assay [24] deals with Candida albicans ATCC 90112.
The subject of assay [25] is Staphylococcus epidermidis.
Assay [26] concerns Bacillus subtilis ATCC 6633.
Assay [27] concerns Micrococcus luteus ATCC 10240.
In assay [28] the test system is Proteus mirabilis.
In assay [29] the test system is Streptococcus pyogenes.
Assay [30] concerns Staphylococcus epidermidis ATCC 12228.
Assay [31] deals with Serratia marcescens ATCC 4112.
Assay [32] has as its system Candida albicans MDM8.
For assay [33], the system named is Micrococcus luteus A270.
Assay [34] concerns Staphylococcus aureus ATCC 29213.

In the case of `CC[C@H](C)[C@H](NC(=O)CN)C(=O)N[C@@H](Cc1cnc[nH]1)C(=O)N[C@@H](CC(=O)O)C(=O)N[C@H](C(=O)N[C@@H](CC(C)C)C(=O)N[C@@H](C)C(=O)N[C@@H](Cc1ccc(O)cc1)C(=O)NCC(=O)N[C@@H](CCCCN)C(=O)N1CCC[C@H]1C(=O)N[C@@H](CO)C(N)=O)[C@@H](C)CC` [GIHDILAYGKPS], the MIC – broadly, the lowest concentration found to suppress growth – in assay [1] came out at 10 µM (≈ 12.7 µg/mL); in [2], 20 µM (≈ 25.4 µg/mL); in [3], 15 µM (≈ 19 µg/mL); in [4], 15 µM (≈ 19 µg/mL); in assay [5], 15 µM (≈ 19 µg/mL).
As to `CC[C@H](C)[C@H](NC(=O)CN)C(=O)N[C@@H](Cc1cnc[nH]1)C(=O)N[C@@H](CC(=O)O)C(=O)N[C@H](C(=O)N[C@@H](CC(C)C)C(=O)N[C@@H](CCCCN)C(=O)N[C@@H](Cc1ccc(O)cc1)C(=O)NCC(=O)N[C@@H](CCCCN)C(=O)N1CCC[C@H]1C(=O)N[C@@H](C)C(N)=O)[C@@H](C)CC` [GIHDILKYGKPA], the MIC is > 50 µM in assay [1]; 30 µM (≈ 39.3 µg/mL) in assay [2]; ≥ 50 µM in [3]; > 50 µM in [4]; ≥ 50 µM in [5].
For `CC[C@H](C)[C@H](NC(=O)[C@@H](N)Cc1cnc[nH]1)C(=O)N[C@@H](CCC(N)=O)C(=O)N[C@@H](CCCCN)C(=O)N[C@@H](CCC(=O)O)C(=O)N[C@@H](CC(=O)O)C(=O)N[C@H](C(=O)N1CCC[C@H]1C(=O)N[C@@H](CO)C(=O)N[C@@H](CCC(=O)O)C(=O)N[C@@H](CCCN=C(N)N)C(=O)N[C@@H](Cc1ccc(O)cc1)C(=O)N[C@@H](CC(C)C)C(=O)NCC(=O)N[C@@H](Cc1ccc(O)cc1)C(=O)N[C@@H](CC(C)C)C(=O)N[C@@H](CCC(=O)O)C(=O)N[C@@H](CCC(N)=O)C(=O)N[C@@H](CC(C)C)C(=O)N[C@@H](CC(C)C)C(=O)N[C@@H](CCCN=C(N)N)C(=O)N[C@@H](CC(C)C)C(=O)N[C@@H](CCCCN)C(=O)N[C@@H](CCCCN)C(=O)N[C@@H](Cc1ccc(O)cc1)C(=O)N[C@@H](CCCCN)C(=O)O)C(C)C` [HIQKEDVPSERYLGYLEQLLRLKKYK], the MIC in assay [6] was ≥ 42.3 µM; in [7], ≥ 169 µM.
Regarding `CC[C@H](C)[C@H](N)C(=O)N[C@@H](CCCCN)C(=O)N[C@@H](CCCCN)C(=O)N[C@H](C(=O)N[C@@H](CC(C)C)C(=O)N[C@@H](CO)C(=O)N[C@@H](CCCCN)C(=O)N[C@H](C(=O)N[C@@H](CCCCN)C(=O)N[C@@H](CCCCN)C(=O)N[C@@H](Cc1c[nH]c2ccccc12)C(=O)N[C@@H](Cc1c[nH]c2ccccc12)C(=O)N[C@@H](CCCCN)C(=O)O)[C@@H](C)CC)[C@@H](C)CC` [IKKILSKIKKWWK], the MIC is 12.5 µM (≈ 21.2 µg/mL) in assay [8]; 10 µM (≈ 17 µg/mL) in assay [9]; 10 µM (≈ 17 µg/mL) in assay [10]; 6.25 µM (≈ 10.6 µg/mL) in assay [11]; 10 µM (≈ 17 µg/mL) in [12]; ≥ 100 µM in assay [13]. In addition, the MIC was ≥ 100 µM in assay [14], 12.5 µM (≈ 21.2 µg/mL) in [15], 20 µM (≈ 34 µg/mL) in assay [16] and ≥ 100 µM in assay [17].
Consider `CC[C@H](C)[C@H](N)C(=O)N[C@@H](CCCCN)C(=O)N[C@@H](CCCCN)C(=O)N[C@H](C(=O)N[C@@H](Cc1c[nH]c2ccccc12)C(=O)N[C@@H](CO)C(=O)N[C@@H](CCCCN)C(=O)N[C@H](C(=O)N[C@@H](CCCCN)C(=O)N[C@@H](CCCCN)C(=O)N[C@@H](CC(C)C)C(=O)N[C@@H](Cc1c[nH]c2ccccc12)C(=O)N[C@@H](CCCCN)C(=O)O)[C@@H](C)CC)[C@@H](C)CC` [IKKIWSKIKKLWK], for which the MIC in assay [8] was 10 µM (≈ 17 µg/mL); in assay [9] it was 2.5 µM (≈ 4.25 µg/mL); in [10] it was 3.13 µM (≈ 5.32 µg/mL); in assay [11], 5 µM (≈ 8.5 µg/mL); in [12], 5 µM (≈ 8.5 µg/mL); in assay [13], ≥ 100 µM. Besides, the MIC in assay [14] is ≥ 100 µM; in assay [15], 2.5 µM (≈ 4.25 µg/mL); in [16], 25 µM (≈ 42.5 µg/mL); in [17], ≥ 100 µM.
As to `CC[C@H](C)[C@H](NC(=O)[C@H](CCCCN)NC(=O)[C@@H](NC(=O)[C@H](Cc1ccccc1)NC(=O)[C@H](C)NC(=O)[C@H](CCCCN)NC(=O)CNC(=O)[C@H](Cc1ccccc1)NC(=O)[C@@H](N)CCCCN)C(C)C)C(=O)N[C@@H](CC(C)C)C(=O)N[C@@H](CCCCN)C(=O)N[C@@H](CCCCN)C(N)=O` [KFGKAFVKILKK], the MIC in [18] was 257 µM (≈ 362 µg/mL); in assay [19], ≥ 257 µM; in assay [20], ≥ 64.3 µM; in assay [21], 16.1 µM (≈ 22.6 µg/mL).
On to `CC[C@H](C)[C@H](NC(=O)[C@H](CO)NC(=O)[C@H](CCC(=O)O)NC(=O)[C@H](CCCCN)NC(=O)[C@@H](NC(=O)[C@@H](N)CCCCN)C(C)C)C(=O)N[C@H](C(=O)N[C@@H](CCCN=C(N)N)C(=O)N[C@@H](CCCCN)C(=O)N[C@@H](CC(C)C)C(=O)O)[C@@H](C)CC` [KVKESIIRKL], for which the MIC in assay [6] is ≥ 500 µM; in assay [7] it was ≥ 1000 µM.
Take `CC[C@H](C)[C@H](NC(=O)[C@H](CC(C)C)NC(=O)CNC(=O)[C@H](CCCCN)NC(=O)[C@H](CC(C)C)NC(=O)[C@H](CC(N)=O)NC(=O)[C@@H](N)CC(C)C)C(=O)N[C@@H](CCCCN)C(=O)N[C@@H](CCCCN)C(=O)N[C@H](C(=O)N[C@@H](C)C(=O)N[C@@H](CO)C(=O)N[C@@H](CC(C)C)C(=O)N[C@@H](CC(C)C)C(=O)N[C@@H](CC(N)=O)C(=O)O)C(C)C` [LNLKGLIKKVASLLN]: the MIC was 15 µM (≈ 24.4 µg/mL) in [22]; 30 µM (≈ 48.7 µg/mL) in assay [23]; 7.5 µM (≈ 12.2 µg/mL) in [24]; 30 µM (≈ 48.7 µg/mL) in assay [25]; 60 µM (≈ 97.4 µg/mL) in [18]; 7.5 µM (≈ 12.2 µg/mL) in assay [26]. For the same molecule, the MIC in assay [27] was 15 µM (≈ 24.4 µg/mL); in assay [28], ≥ 60 µM; in assay [29], 15 µM (≈ 24.4 µg/mL); in assay [21], 30 µM (≈ 48.7 µg/mL).
For `CC(C)C[C@H](NC(=O)[C@H](CO)NC(=O)[C@H](Cc1ccccc1)NC(=O)[C@@H]1CCCN1C(=O)[C@@H](N)CCC(N)=O)C(=O)N[C@@H](CCC(=O)O)C(=O)N[C@@H](CCCN=C(N)N)C(=O)N[C@@H](Cc1c[nH]c2ccccc12)C(=O)O` [QPFSLERW], the MIC in [30] is 189 µM (≈ 201 µg/mL); in assay [31], ≥ 47.2 µM; in [32], ≥ 189 µM; in [33], ≥ 94.5 µM; in assay [34], 189 µM (≈ 201 µg/mL).
